In ChEMBL document CHEMBL4831537, “Biotransformation of Betulonic Acid by the Fungus Rhizopus arrhizus CGMCC 3.868 and Antineuroinflammatory Activity of the Biotransformation Products” (J Nat Prod, 2021):

Legend:
BV-2 = assay: Anti-neuroinflammatory activity in mouse BV-2 cells assessed as inhibition of LPS-induced NO production incubated for 48 hrs by Griess reagent based assay; assay type: functional, cell-based; settings: BV-2, 48 h
[1] = Cytotoxicity against mouse BV-2 cells assessed as cell viability by MTT assay; assay type: cell-based; set-up: concentration or dose not given beside the values; settings: read-out: Activity

SMILES	IC50 (BV-2) [µM]	viability [1] [%]
CC(=O)[C@@H]1CC[C@]2(C(=O)O)CC[C@]3(C)[C@H](CC[C@@H]4[C@@]5(C)CCC(=O)C(C)(C)[C@@H]5C[C@H](O)[C@]43C)[C@@H]12	53.9	106
C=C(C)[C@@H]1CC[C@]2(C(=O)O)CC[C@]3(C)[C@H](CC[C@@H]4[C@@]5(C)CCC(=O)C(C)(C)[C@@H]5C[C@H](O)[C@]43C)[C@@H]12	34.6	99.2
C=C(C)[C@@H]1CC[C@]2(C(=O)O)CC[C@]3(C)[C@H](CC[C@@H]4[C@@]5(C)CCC(=O)[C@@](C)(COC(C)=O)[C@@H]5C[C@H](O)[C@]43C)[C@@H]12	1.55	103
C=C(C)[C@@H]1CC[C@]2(C(=O)O)CC[C@]3(C)[C@H](CC[C@@H]4[C@@]5(C)CC(=O)[C@H](O)C(C)(C)[C@@H]5C[C@H](O)[C@]43C)[C@@H]12	> 100	97.3
C=C(C)[C@@H]1CC[C@]2(C(=O)O)CC[C@]3(C)[C@H](C[C@H](O)[C@@H]4[C@@]5(C)CCC(=O)C(C)(C)[C@@H]5C[C@H](O)[C@]43C)[C@@H]12	> 100	88.4
CC(=O)OC[C@H](C)[C@@H]1CC[C@]2(C(=O)O)CC[C@]3(C)[C@H](CC[C@@H]4[C@@]5(C)CCC(=O)C(C)(C)[C@@H]5C[C@H](O)[C@]43C)[C@@H]12	61.2	99.5
C=C(CO)[C@@H]1CC[C@]2(C(=O)O)CC[C@]3(C)[C@H](CC[C@@H]4[C@@]5(C)CCC(=O)C(C)(C)[C@@H]5C[C@H](O)[C@]43C)[C@@H]12	11.1	103
C=C(C)[C@@H]1C[C@@H](O)[C@]2(C(=O)O)CC[C@]3(C)[C@H](CC[C@@H]4[C@@]5(C)CCC(=O)C(C)(C)[C@@H]5C[C@H](O)[C@]43C)[C@@H]12	37.2	101
C=C(C)[C@@H]1CC[C@]2(C(=O)O)C[C@H](O)[C@]3(C)[C@H](CC[C@@H]4[C@@]5(C)CCC(=O)C(C)(C)[C@@H]5C[C@H](O)[C@]43C)[C@@H]12	93.7	101
C=C(COC(C)=O)[C@@H]1CC[C@]2(C(=O)O)C[C@H](O)[C@]3(C)[C@H](CC[C@@H]4[C@@]5(C)CCC(=O)C(C)(C)[C@@H]5CC[C@]43C)[C@@H]12	76.6	101
C=C(C)[C@@H]1CC[C@]2(C(=O)O)CC[C@]3(C)[C@H](CC[C@@H]4[C@@]5(C)CCC(=O)[C@@](C)(CO)[C@@H]5C[C@H](O)[C@]43C)[C@@H]12	15.6	110
C=C(C)[C@@H]1CC[C@]2(C(=O)O)C[C@H](O)[C@]3(C)[C@H](C[C@@H](O)[C@@H]4[C@@]5(C)CCC(=O)C(C)(C)[C@@H]5CC[C@]43C)[C@@H]12	> 100	103
C=C(C)[C@@H]1CC[C@]2(C(=O)O)C[C@H](O)[C@]3(C)[C@H](CC[C@@H]4[C@@]5(C)CCC(=O)[C@@](C)(CO)[C@@H]5C[C@H](O)[C@]43C)[C@@H]12	58.3	105
C=C(C)[C@@H]1CC[C@]2(C(=O)O)C[C@H](O)[C@]3(C)[C@H](CC[C@@H]4[C@@]5(C)CCC(=O)[C@@](C)(COC(C)=O)[C@@H]5CC[C@]43C)[C@@H]12	42.4	102
C=C(COC(C)=O)[C@@H]1CC[C@]2(C(=O)O)CC[C@]3(C)[C@H](CC[C@@H]4[C@@]5(C)CCC(=O)C(C)(C)[C@@H]5C[C@H](O)[C@]43C)[C@@H]12	5.38	109
C=C(CO)[C@@H]1CC[C@]2(C(=O)O)CC[C@]3(C)[C@H](CC[C@@H]4[C@@]5(C)CCC(=O)C(C)(C)[C@@H]5CC[C@]43C)[C@@H]12	35.1	104
C=C(C)[C@@H]1CC[C@]2(C(=O)O[C@@H]3O[C@H](CO)[C@@H](O)[C@H](O)[C@H]3O)CC[C@]3(C)[C@H](CC[C@@H]4[C@@]5(C)CCC(=O)C(C)(C)[C@@H]5C[C@H](O)[C@]43C)[C@@H]12	4.69	101
CC(=O)OC[C@@H](C)[C@@H]1CC[C@]2(C(=O)O)CC[C@]3(C)[C@H](CC[C@@H]4[C@@]5(C)CCC(=O)C(C)(C)[C@@H]5C[C@H](O)[C@]43C)[C@@H]12	66.3	98.8
C=C(C)[C@@H]1CC[C@]2(C(=O)O)CC[C@]3(C)[C@H](CC[C@@H]4[C@@]5(C)CCC(=O)C(C)(C)[C@@H]5C[C@H](OC(C)=O)[C@]43C)[C@@H]12	10.3	102
C=C(C)[C@@H]1CC[C@]2(C(=O)O)CC[C@]3(C)[C@H](CC[C@@H]4[C@@]5(C)C[C@@H](O)C(=O)C(C)(C)[C@@H]5C[C@H](O)[C@]43C)[C@@H]12	64.8	106
C=C(COO)[C@@H]1CC[C@]2(C(=O)O)CC[C@]3(C)[C@H](CC[C@@H]4[C@@]5(C)CCC(=O)C(C)(C)[C@@H]5CC[C@]43C)[C@@H]12	24.8	101
C=C(C)[C@@H]1CC[C@]2(C(=O)O)CC[C@]3(C)[C@H](CC[C@@H]4[C@@]5(C)CCC(=O)C(C)(C)[C@@H]5CC[C@]43C)[C@@H]12 [BETUNOLIC ACID]	60.7	102
CNC(=N)NCCC[C@H](N)C(=O)O [TILARGININE]	21.4	110
